Patent US20250282746A1, “HALOGEN-SUBSTITUTED ISOINDOLINE COMPOUND AND USE THEREOF” (CHENGDU FENDI PHARMACEUTICAL CO., LTD., priority 2022, published 2025)
Like-named read-outs stand apart in the source and are kept apart here.

How the values were obtained:
GSPT1 protein = target: T1, GSPT1 protein (Homo sapiens, UniProt P15170); experiment: Degradation of GSPT1 protein in NB-4 cells (Western blot); type: cell-based; conditions: read-out: GSPT1 degradation
T1 construct: The whole cell lysate was prepared using a RIPA lysis buffer; endogenous in cells; host or cells: NB-4 cells
T1 sequence (P15170 whole entry): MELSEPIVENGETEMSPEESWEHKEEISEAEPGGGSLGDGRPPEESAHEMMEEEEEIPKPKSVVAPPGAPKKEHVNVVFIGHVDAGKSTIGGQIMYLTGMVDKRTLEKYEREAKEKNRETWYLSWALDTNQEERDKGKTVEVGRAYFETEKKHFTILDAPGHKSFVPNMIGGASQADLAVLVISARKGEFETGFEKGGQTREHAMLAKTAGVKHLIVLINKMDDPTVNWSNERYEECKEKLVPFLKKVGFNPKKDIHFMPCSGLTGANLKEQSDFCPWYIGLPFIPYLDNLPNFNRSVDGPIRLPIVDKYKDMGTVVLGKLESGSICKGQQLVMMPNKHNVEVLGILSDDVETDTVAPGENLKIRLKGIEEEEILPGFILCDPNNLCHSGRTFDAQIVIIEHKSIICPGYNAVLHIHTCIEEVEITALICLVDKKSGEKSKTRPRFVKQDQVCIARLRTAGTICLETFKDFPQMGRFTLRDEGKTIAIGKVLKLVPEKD
Protocol: 150 μL of DMSO and the compounds (1 μM) were added, and the mixture was incubated in an incubator at 5% CO2 and 37° C. for 6 h. The cells were centrifuged, and the culture medium was discarded. PBS was added for washing and then discarded. The whole cell lysate was prepared using a RIPA lysis buffer containing a protease inhibitor cocktail and a phosphatase inhibitor, and incubated on ice for 30 min. The mixture was centrifuged, and the cell debris was discarded. The whole cell lysate supernatant was collected and transferred to a fresh EP tube. Samples were prepared using a loading buffer after a BCA protein assay. The samples were incubated in a metal bath at 100° C. for 10 min.
The samples were electrophoretically separated from proteins on a 4-20% precast gel (SDS-PAGE gel), transferred to a PVDF membrane, blocked with 5% NFDM/TBST for 1 h at room temperature, co-incubated overnight at 4° C. with the primary antibody, and co-incubated for 2 h at room temperature with the secondary antibody on the next day. The signals were detected on the […]™ imaging system.

MV-4-11 cells = experiment: Antiproliferative activity against MV-4-11 cells (CellTiter-Glo, 72 h); type: cell-based; conditions: Homo sapiens, read-out: Antiproliferative activity IC50
Protocol: MV411 cells in the logarithmic growth phase were diluted in a medium (RPMI+10% FBS) and plated at 5,000 cells/well in 96-well whole black plates (WHB) with 50 μL/well. After plating, the plates were incubated in an incubator at 5% CO2 and 37° C. for 24 h before the compounds were added. The compounds were prepared into a 10 mM stock solution in DMSO and diluted in a culture medium to the desired concentrations (a final DMSO concentration of 0.2%). […] The plates were incubated at 5% CO2 and 37° C. for 72 h. After the incubation was complete, the plates were equilibrated at room temperature for 30 min. CellTiter-Glo® Reagent (Promega G7573) was added at 100 μL/well. The plates were shaken for 12 min on a microplate shaker. The luminescence value was measured at room temperature by the GloMax navigator (Promega GM2010).

SMILES | inhibition at 1 µM (GSPT1 protein; NB-4 cells, compound 1 μM, 6 h) | IC50 (MV-4-11 cells; MV4-11, MV-4-11 cells, 72 h) | inhibition at 1 µM (GSPT1 protein; NB-4, 6 h) | IC50 (MV-4-11 cells; MV4-11, 72 h)
Cc1ccc(C(=O)NCc2ccc3c(c2Cl)CN(C2CCC(=O)NC2=O)C3=O)cc1 (stereo not drawn) [FDAB-76] | < 25% | > 1000 nM | – | –
O=C1CCC(N2Cc3c(ccc(CNC(=O)c4ccc(F)cc4)c3Cl)C2=O)C(=O)N1 (stereo not drawn) [FDAB-77] | < 25% | > 1000 nM | – | –
O=C1CCC(N2Cc3c(ccc(CNC(=O)c4ccc(Cl)cn4)c3Cl)C2=O)C(=O)N1 (stereo not drawn) [FDAB-80] | < 25% | > 1000 nM | – | –
O=C1CCC(N2Cc3c(ccc(CNC(=O)c4ccc(-c5ccccc5)cc4)c3F)C2=O)C(=O)N1 (stereo not drawn) [FDAB-84] | > 80% | < 1 nM | – | –
CN(C)c1ccc(C(=O)NCc2ccc3c(c2F)CN(C2CCC(=O)NC2=O)C3=O)cc1 (stereo not drawn) [FDAB-86] | > 80% | 1 to 10 nM | – | –
O=C1CCC(N2Cc3c(ccc(CNC(=O)c4ccc5cc6ccccc6cc5c4)c3F)C2=O)C(=O)N1 (stereo not drawn) [FDAB-87] | < 25% | < 1 nM | – | –
[2H]c1c([2H])c([2H])c(C(=O)NCc2ccc3c(c2F)CN(C2CCC(=O)NC2=O)C3=O)c([2H])c1[2H] (stereo not drawn) [FDAB-88] | < 25% | > 1000 nM | – | –
O=C1CCC(N2Cc3c(ccc(CNC(=O)c4ccc(C5CC5)cc4)c3F)C2=O)C(=O)N1 (stereo not drawn) [FDAB-97] | > 80% | 1 to 10 nM | – | –
CC(=O)c1ccc(C(=O)NCc2ccc3c(c2F)CN(C2CCC(=O)NC2=O)C3=O)cc1 (stereo not drawn) [FDAB-99] | 50 to 80% | 10 to 100 nM | – | –
O=C1CCC(N2Cc3c(ccc(CNC(=O)c4ccc(Oc5ccccc5)cc4)c3F)C2=O)C(=O)N1 (stereo not drawn) [FDAB-101] | > 80% | < 1 nM | – | –
CC(C)(C)Oc1ccc(C(=O)NCc2ccc3c(c2F)CN(C2CCC(=O)NC2=O)C3=O)cc1 (stereo not drawn) [FDAB-103] | > 80% | < 1 nM | – | –
COc1cc(C)ccc1C(=O)NCc1ccc2c(c1F)CN(C1CCC(=O)NC1=O)C2=O (stereo not drawn) [FDAB-104] | < 25% | > 1000 nM | – | –
CS(=O)(=O)c1ccc(C(=O)NCc2ccc3c(c2F)CN(C2CCC(=O)NC2=O)C3=O)cc1 (stereo not drawn) [FDAB-107] | < 25% | > 1000 nM | – | –
Cc1ccc(C(=O)NCc2ccc3c(c2F)CN(C2CCC(=O)NC2=O)C3=O)c(O)c1 (stereo not drawn) [FDAB-109] | > 80% | 1 to 10 nM | – | –
O=C1CCC(N2Cc3c(ccc(CNC(=O)c4ccc(N5CCCC5)cc4)c3F)C2=O)C(=O)N1 (stereo not drawn) [FDAB-110] | > 80% | < 1 nM | – | –
CS(=O)(=O)c1ccc(C(=O)NCc2ccc3c(c2F)CN(C2CCC(=O)NC2=O)C3=O)c(N)c1 (stereo not drawn) [FDAB-114] | < 25% | > 1000 nM | – | –
O=C1CCC(N2Cc3c(ccc(CNC(=O)c4ccc(Cl)cc4F)c3Cl)C2=O)C(=O)N1 (stereo not drawn) [FDAB-119] | > 80% | 10 to 100 nM | – | –
Cc1ccc(C(=O)NCc2ccc3c(c2Cl)CN(C2CCC(=O)NC2=O)C3=O)c(F)c1 (stereo not drawn) [FDAB-123] | 50 to 80% | 10 to 100 nM | – | –
CCN1C(=O)CCC(N2Cc3c(ccc(CNC(=O)c4ccc(Cl)cc4)c3F)C2=O)C1=O (stereo not drawn) [FDAB-125] | < 25% | > 1000 nM | – | –
CCOC(=O)CN1C(=O)CCC(N2Cc3c(ccc(CNC(=O)c4ccc(Cl)cc4)c3F)C2=O)C1=O (stereo not drawn) [FDAB-126] | < 25% | > 1000 nM | – | –
CC(C)OC(=O)N1C(=O)CCC(N2Cc3c(ccc(CNC(=O)c4ccc(Cl)cc4)c3F)C2=O)C1=O (stereo not drawn) [FDAB-127] | < 25% | > 1000 nM | – | –
CC(C)OC(=O)OCN1C(=O)CCC(N2Cc3c(ccc(CNC(=O)c4ccc(Cl)cc4)c3F)C2=O)C1=O (stereo not drawn) [FDAB-128] | – | – | 50 to 80% | 10 to 100 nM
Cc1ccc(C(=O)NCc2ccc3c(c2F)CN(C2CCC(=O)N(COC(=O)OC(C)C)C2=O)C3=O)c(F)c1 (stereo not drawn) [FDAB-130] | – | – | 50 to 80% | 10 to 100 nM
CCCCOc1ccc(CC(=O)NCc2ccc3c(c2F)CN(C2CCC(=O)NC2=O)C3=O)cc1 (stereo not drawn) [FDAB-132] | > 80% | < 1 nM | – | –
O=C(Cc1cccc(-c2ccccc2)c1)NCc1ccc2c(c1F)CN(C1CCC(=O)NC1=O)C2=O (stereo not drawn) [FDAB-133] | > 80% | < 1 nM | – | –
O=C(Cc1c[nH]c2ccc(F)cc12)NCc1ccc2c(c1F)CN(C1CCC(=O)NC1=O)C2=O (stereo not drawn) [FDAB-134] | 50 to 80% | 1 to 10 nM | – | –
O=C(Cc1c[nH]c2cccc(Br)c12)NCc1ccc2c(c1F)CN(C1CCC(=O)NC1=O)C2=O (stereo not drawn) [FDAB-135] | > 80% | 1 to 10 nM | – | –
O=C(Cc1cc2ccccc2s1)NCc1ccc2c(c1F)CN(C1CCC(=O)NC1=O)C2=O (stereo not drawn) [FDAB-136] | > 80% | 1 to 10 nM | – | –
O=C(CCc1cccc2ccccc12)NCc1ccc2c(c1F)CN(C1CCC(=O)NC1=O)C2=O (stereo not drawn) [FDAB-138] | > 80% | < 1 nM | – | –

The next lines start with results.

inhibition at 1 µM (GSPT1 protein; NB-4 cells, compound 1 μM, 6 h) | IC50 (MV-4-11 cells; MV4-11, MV-4-11 cells, 72 h) | SMILES | inhibition at 1 µM (GSPT1 protein; NB-4, 6 h) | IC50 (MV-4-11 cells; MV4-11, 72 h)
< 25% | > 1000 nM | N#Cc1cc(C(=O)NCc2ccc3c(c2Cl)CN(C2CCC(=O)NC2=O)C3=O)ccc1Cl (stereo not drawn) [FDAB-78] | – | –
> 80% | 10 to 100 nM | O=C1CCC(N2Cc3c(ccc(CNC(=O)c4ccc(Cl)c(O)c4)c3Cl)C2=O)C(=O)N1 (stereo not drawn) [FDAB-79] | – | –
< 25% | > 1000 nM | O=C1CCC(N2Cc3c(ccc(CNC(=O)c4ccccc4)c3F)C2=O)C(=O)N1 (stereo not drawn) [FDAB-81] | – | –
< 25% | > 1000 nM | N#Cc1cc(C(=O)NCc2ccc3c(c2F)CN(C2CCC(=O)NC2=O)C3=O)ccc1Cl (stereo not drawn) [FDAB-82] | – | –
> 80% | 10 to 100 nM | O=C1CCC(N2Cc3c(ccc(CNC(=O)c4ccc(Cl)c(O)c4)c3F)C2=O)C(=O)N1 (stereo not drawn) [FDAB-83] | – | –
> 80% | 10 to 100 nM | COc1ccc(C(=O)NCc2ccc3c(c2F)CN(C2CCC(=O)NC2=O)C3=O)cc1 (stereo not drawn) [FDAB-85] | – | –
< 25% | > 1000 nM | Cc1cccc(C(=O)NCc2ccc3c(c2F)CN(C2CCC(=O)NC2=O)C3=O)c1 (stereo not drawn) [FDAB-89] | – | –
> 80% | 1 to 10 nM | CCc1ccc(C(=O)NCc2ccc3c(c2F)CN(C2CCC(=O)NC2=O)C3=O)cc1 (stereo not drawn) [FDAB-90] | – | –
> 80% | < 1 nM | CCCc1ccc(C(=O)NCc2ccc3c(c2F)CN(C2CCC(=O)NC2=O)C3=O)cc1 (stereo not drawn) [FDAB-91] | – | –
> 80% | < 1 nM | CC(C)c1ccc(C(=O)NCc2ccc3c(c2F)CN(C2CCC(=O)NC2=O)C3=O)cc1 (stereo not drawn) [FDAB-93] | – | –
> 80% | 1 to 10 nM | C=Cc1ccc(C(=O)NCc2ccc3c(c2F)CN(C2CCC(=O)NC2=O)C3=O)cc1 (stereo not drawn) [FDAB-95] | – | –
> 80% | 1 to 10 nM | C#Cc1ccc(C(=O)NCc2ccc3c(c2F)CN(C2CCC(=O)NC2=O)C3=O)cc1 (stereo not drawn) [FDAB-96] | – | –
> 80% | 1 to 10 nM | O=C1CCC(N2Cc3c(ccc(CNC(=O)c4ccc5c(c4)CC5)c3F)C2=O)C(=O)N1 (stereo not drawn) [FDAB-98] | – | –
< 25% | > 1000 nM | COc1ccc(C(=O)NCc2ccc3c(c2F)CN(C2CCC(=O)NC2=O)C3=O)cc1OC (stereo not drawn) [FDAB-102] | – | –
> 80% | 10 to 100 nM | O=C1CCC(N2Cc3c(ccc(CNC(=O)c4ccc5c(c4)C(=O)CC5)c3F)C2=O)C(=O)N1 (stereo not drawn) [FDAB-106] | – | –
< 25% | > 1000 nM | O=C1CCC(N2Cc3c(ccc(CNC(=O)c4ccc(CO)cc4)c3F)C2=O)C(=O)N1 (stereo not drawn) [FDAB-108] | – | –
< 25% | > 1000 nM | Cc1ccc(C(=O)NCc2ccc3c(c2F)CN(C2CCC(=O)NC2=O)C3=O)c(N)c1 (stereo not drawn) [FDAB-111] | – | –
> 80% | 10 to 100 nM | Cc1ccc(C(=O)NCc2ccc3c(c2F)CN(C2CCC(=O)NC2=O)C3=O)cc1N (stereo not drawn) [FDAB-112] | – | –
> 80% | 10 to 100 nM | Nc1cc(C(=O)NCc2ccc3c(c2F)CN(C2CCC(=O)NC2=O)C3=O)ccc1Cl (stereo not drawn) [FDAB-113] | – | –
< 25% | > 1000 nM | NS(=O)(=O)c1cc(C(=O)NCc2ccc3c(c2F)CN(C2CCC(=O)NC2=O)C3=O)ccc1Cl (stereo not drawn) [FDAB-115] | – | –
> 80% | 1 to 10 nM | O=C1CCC(N2Cc3c(ccc(CNC(=O)c4ccc(Cl)c(F)c4)c3F)C2=O)C(=O)N1 (stereo not drawn) [FDAB-116] | – | –
> 80% | 1 to 10 nM | O=C1CCC(N2Cc3c(ccc(CNC(=O)c4ccc(Cl)cc4F)c3F)C2=O)C(=O)N1 (stereo not drawn) [FDAB-117] | – | –
50 to 80% | 10 to 100 nM | O=C1CCC(N2Cc3c(ccc(CNC(=O)c4ccc(Cl)c(F)c4)c3Cl)C2=O)C(=O)N1 (stereo not drawn) [FDAB-118] | – | –
< 25% | 100 to 1000 nM | Cc1ccc(C(=O)NCc2ccc3c(c2Cl)CN(C2CCC(=O)NC2=O)C3=O)cc1F (stereo not drawn) [FDAB-122] | – | –
> 80% | < 1 nM | O=C(Cc1ccc(Cl)cc1Cl)NCc1ccc2c(c1F)CN(C1CCC(=O)NC1=O)C2=O (stereo not drawn) [FDAB-131] | – | –
